Measurements as given in US11802107B2, “Compounds and methods of use” (Signum Biosciences, Inc., priority 2017, dated 2023).

How the values were obtained:
[1] = test system: TSLP; experiment: Calcipotriol-induced TSLP in vivo; conditions: CD1 mice, calcipotriol 4 nmol/ear, 24 hours
Text: CD1 mice were topically exposed to 4 nmol/ear Calcipotriol. Five minutes after challenge compounds were applied. Twenty-four hours later, protein samples were extracted from ear skin biopsies and analyzed for TSLP levels by ELISA method. Vehicle for compounds were 60:40 EtOH:H2O (Compound C) or 1:1 EtOH:Acetone (AN2728). Data represents average±S.E. of a representative set from 2 independent experiments (n=6 mice per group). *p value<0.05; **p value≤0.01 by Student t test compared to Calcipotriol+vehicle-only treated animals. ns equals not significant.

[2] = test system: IL-8; experiment: TPA-induced IL-8 on NHEKs; assay type: cell-based; conditions: Homo sapiens; NHEK, TPA 5 ng/mL, 24 hours, ELISA
Experimental: Normal human epidermal keratinocytes (NHEKs) from neonatal donors were obtained from Thermo-Fisher (Cat No. C-001-5C). Cells were cultured in 96-well plates for 24 hours with EpiLife media (Cat No. MEPI500CA) supplemented with keratinocytes growth supplement (Cat No. S0015). On Day 2, media was removed and replaced with supplement-depleted medium for 24 hours. On Day 3, media was removed and cells were pre-treated with test materials (≤1 μM) for 2 hours and later co-treated with test materials and TPA (Sigma Aldrich, Cat No. P8139) at 5 ng/mL and incubated for 24 hours at 37° C. and 5% CO2. After incubation, cell media supernatants were harvested and used to measure pro-inflammatory cytokine levels (IL-8) using ELISA kit (BD Biosciences® #555244). Results were represented as percent of inhibition relative to untreated and TPA-only treated cells. IC50 values were determined by non-linear regression analysis using the four-parameter logistic equation.

[3] = test system: PHA-induced cytokines; experiment: PHA-induced cytokines on PBMCs (Example F); assay type: cell-based, human; conditions: PHA-L instead of anti-CD3/CD28 beads
Experimental: Cryopreserved human Peripheral Blood Mononuclear cells (PBMCs) from healthy adult donors were obtained from Zen Bio, Inc (Cat No. SER-PBMC-F). Cells were cultured in 96-well plates with lymphocyte media (Cat No. LYMPH-1) and were pre-treated with test materials (≤100 μM) for 2 hours and later co-treated with test materials and anti-CD3/CD28 beads (Thermo-Fisher; Cat No. 11131D) at 1:0.4 PBMC:bead ratio for 24 hours at 37° C. and 5% CO2. After incubation, cell media supernatants were harvested and used to measure cytokine levels (IL-4, IL-5, IL-10) using ELISA kits (BD Biosciences® #555194, #555157; R&D Systems® #DY317). Results were represented as percent of inhibition relative to untreated and anti-CD3/CD28 beads-only treated cells. IC50 values were determined by non-linear regression analysis using the four-parameter logistic equation.
By a similar method, but instead of anti-CD3/CD28 beads (Thermo-Fisher; Cat No. 11131D), compounds A, C, T and E were treated with LPS (Sigma Aldrich, Cat. No. LF4321) to measure inhibition of LPS-induced cytokines, and compounds C and T were treated with PHA-L (Sigma Aldrich, Cat No. 11249738001) to measure inhibition of PHA-induced cytokines.

[4] = test system: IL1B (IL-1b); experiment: P. acnes-induced IL-1b gene on human PBMCs (qPCR); assay type: cell-based; conditions: PBMC, PBMCs + live P. acnes 1:1, test material 30 PM, 24 hours
Experimental: Cryopreserved human Peripheral Blood Mononuclear cells (PBMCs) from healthy adult donors were obtained from Zen Bio, Inc (Cat No. SER-PBMC-F). Cells were cultured in 12-well plates with lymphocyte media (Cat No. LYMPH-1) and incubated with test materials ([…]) and live P. acnes (ATCC® 6919TM) at 1:1 PBMC: P. acnes bacteria ratio for 24 hours at 37° C. and 5% CO2. After incubation, cell media supernatants were harvested and used to measure pro-inflammatory cytokine levels (IL-8, TNF-α, IL-1b, IL-17) using ELISA kits (BD Biosciences® #557966, #555212, #555244; R&D Systems® #DY317). Total RNA was extracted from cells using the RNAqueous® kit (Ambion®; Cat No. 1912) and cDNA was obtained using the High Capacity RNA-to-cDNA kit (Applied Biosystems®; Cat No. 4387406). Quantitative PCR (qPCR) was performed using the TaqMan® Fast Advanced Master Mix (Applied Biosystems®; Cat No. 4444556) and specific TaqMan®-probes human gene primers CXCL8 (IL-8), IL1B (IL-1b), TNF (TNF-α), IL17A (IL-17A) and GAPDH to calculate the relative gene fold expression change per treatment. Gene expression analysis was performed using the comparative Ct method (also known as the 2-[delta][delta]Ct) approach by comparing the Ct values of P. acnes-only treated cells with the untreated samples and normalized to GAPDH gene expression as endogenous housekeeping gene.

[5] = test system: DEFB4B (hBD2); experiment: NHEK antimicrobial peptide gene expression, hBD2; assay type: cell-based, human; conditions: 10 μM, 24 hours, qPCR, normalized to GAPDH
Experimental: Normal human epidermal keratinocytes (NHEKs) from neonatal donors were obtained from Thermo-Fisher (Cat No. C-001-5C). Cells were cultured in 6-well plates for 24 hours before treatments with EpiLife media (Cat No. MEPI500CA) supplemented with keratinocytes growth supplement (Cat No. 50015). On Day 2, media was removed and incubated with test materials (10 μM) for 24 hours at 37° C. and 5% CO2. On Day 3, total RNA was extracted from cells using the RNAqueous® kit (Ambion®; Cat No. 1912) and cDNA was obtained using the High Capacity RNA-to-cDNA kit (Applied Biosystems®; Cat No. 4387406). Quantitative PCR (qPCR) was performed using the TaqMan® Fast Advanced Master Mix (Applied Biosystems®; Cat No. 4444556) and specific TaqMan®-probes human gene primers DEFB4B (hBD2), DEFB103 (hBD3), HCAP18 and GAPDH to calculate the relative gene fold expression change per treatment. Gene expression analysis was performed using the comparative Ct method (also known as the 2-[delta][delta]Ct) approach by comparing the Ct values of the treated samples with the untreated samples and normalized to GAPDH gene expression as endogenous housekeeping gene. Results were represented as fold-expression/untreated cells.

[6] = test system: subjects with mild to moderate acne; experiment: 8-week clinical study in subjects with mild to moderate acne; assay type: in vivo; design: scale not given here; conditions: E 1% w/w, BPO 3% w/w, human
Text: Subjects used the assigned product at home for 8 weeks. Subjects returned post baseline at week 2, 4 and 8. At each visit subjects underwent expert clinical grading and test site photography. […] The severity of acne signs and symptoms on the faces of >18 yo subjects were clinically assessed by IGA scale during an 8-week Study period. In addition, UV light mode was utilized to observe porphyrins fluorescence (orange-red dots).

| IC50 [2] | SMILES | AVG - TSLP ([1]; topical dose 4.0 μg/ear) | TSLP % inhb ([1]; topical dose 4.0 μg/ear) | AVG - TSLP ([1]; topical dose 40.0 μg/ear) | TSLP % inhb ([1]; topical dose 40.0 μg/ear) | AVG - TSLP ([1]; topical dose 400.0 μg/ear) | TSLP % inhb ([1]; topical dose 400.0 μg/ear) | inhibition of PHA-induced cytokines [3] | inhibition at 30 pM [4] | hBD2 gene expression [5] | Investigator Global Assesment (IGA) Scale ([6]; 2 week) | Investigator Global Assesment (IGA) Scale ([6]; 4 week) | Investigator Global Assesment (IGA) Scale ([6]; 8 week) | Investigator Global Assesment (IGA) Scale ([6]; Baseline) |
| --- | --- | --- | --- | --- | --- | --- | --- | --- | --- | --- | --- | --- | --- | --- |
| 20 nM | N#Cc1ccc(Oc2ccc3c(c2)COB3O)cc1 [AN2728, reference compound] | 2495.1 pg/6 mm biopsy | 51% | 2235.3 pg/6 mm biopsy | 57% | 352.1 pg/6 mm biopsy | 102% |  |  |  |  |  |  |  |
| 20 nM | C/C(=C\CSC[C@H](NC(=O)N(C)CC(=O)O)C(=O)O)CCCC(C)CCCC(C)CCCC(C)C (stereo partly drawn) [Compound C, (2R)-2-{[(carboxymethyl)(methyl)carbamoyl]amino}-3-{[(2E)-3,7,11,15-tetramethylhexadec-2-en-1-yl]sulfanyl}propanoic acid] | 2753.6 pg/6 mm biopsy | 15% | 1156.1 pg/6 mm biopsy | 74% | 759.9 pg/6 mm biopsy | 88% | did not show significant inhibition | 0% | 0.7 Fold-expression/untreated cells |  |  |  |  |
|  | C/C(=C\CSC[C@H](NC(=O)N1CCC[C@H]1C(=O)O)C(=O)O)CCCC(C)CCCC(C)CCCC(C)C (stereo partly shown) [Compound E] |  |  |  |  |  |  |  | 20% | 1.1 Fold-expression/untreated cells | 2 | 1 | 0 | 3 |
|  | C/C(=C\CSCC(NC(=O)N(CC(=O)O)CC(=O)O)C(=O)O)CCCC(C)CCCC(C)CCCC(C)C (stereo not shown) [Compound G] |  |  |  |  |  |  |  | 10% | 2.5 Fold-expression/untreated cells |  |  |  |  |
| 30 nM | C/C(=C\CSC[C@H](NC(=O)COCC(=O)O)C(=O)O)CCCC(C)CCCC(C)CCCC(C)C (stereo partly shown) [Compound T] |  |  |  |  |  |  | did not show significant inhibition | 27% |  |  |  |  |  |
